Series [1] concerns influenza H3N2/Wisconsin/67/2005. Kind of series: plaque assay of influenza H3N2 replication in MDCK cells. It is filed as cell-based, influenza virus. The following applies: 10 μM, control drug.
The subject of series [2] is herpes simplex virus type 1 strain KOS. Kind of series: plaque inhibition assay of HSV1 strain KOS replication in Vero cells. It is filed as cell-based. Conditions: for inhibition of plaque number: compared to media-only treated controls.
The subject of series [3] is Vero African green monkey kidney cells.
The next series has as its system MDCK canine kidney cells. Conditions: for effect on monolayer: compared to cell control wells.

The values below come from patent US20170298100A1, “ANTI-VIRAL PEPTIDES” (Cascadia Life Sciences LLC, priority 2014, published 2017).

Read-outs that look alike come from different tables or passages of the source.

Consider `CCOC(=O)C1=C[C@@H](OC(CC)CC)[C@H](NC(C)=O)[C@@H](N)C1` [Oseltamivir], for which the “inhibition of H3N2 plaques” value in series [1] is listed as “completely inhibitory”.

As to `Nc1nc2c(ncn2COCCO)c(=O)[nH]1` [acyclovir, reference compound], in series [2] (5 μM acyclovir control), the “plaque size relative to plaques with 56 μM CLS1N (approx. 0.7 mm)” value is listed as “approximately the same size”.

Regarding “Ac-RQYSVTDALEDVSTSPQSTEEVVQSFLISQ-NH2 [CLS1S]”, the “density of the monolayer” value in series [3] (188 ug/ml dilution) is on record as “did not affect the density of the monolayer”. The effect on monolayer result in series [3] (highest concentration, compared to control untreated cells) was “moderate thinning”.

Consider “Ac-ADVDVSAVQAKLGALELNQRDAAAETELRV-NH2 [CLS2A]”, for which the cytotoxicity entry in the series with MDCK canine kidney cells (59.4 μM (second concentration)) was “no cytotoxicity”. The effect on monolayer result in the series with MDCK canine kidney cells (188 μM (highest concentration)) was “moderate thinning and more intense staining of the monolayer”.

As for “RQYSVTDALEDVNTSPQSTEEVVQSFLISQ (Artificial anti-viral peptides) [CLS1N]”, the plaque size result in series [2] (5.6 μM (dilution 4)) and in series [2] (17.6 μM (dilution 3)) was “wild type size” throughout. Moreover, the “inhibition of plaque number” value in series [2] (5.6 μM (dilution 4)) and in series [2] (17.6 μM (dilution 3)) was “not significant inhibition of plaque number” in each case. In addition, in series [2] (56 μM, untreated plaques approx. 1.5 mm), the “plaque size (diameter)” value is “approx. 0.7 mm”. Further, in series [2] (177 μM), the plaque number result is given as “reduced in number”. Moreover, the “inhibition of virus growth in cells” value in series [2] (plaque inhibition assay, Vero cells) is reported as “effectively inhibited virus growth”. In addition, the monolayer appearance result in series [3] (5.6 μM (dilution 4)) and in series [3] (17.6 μM (dilution 3)) was “normal microscopically” throughout. In addition, in series [3] (56 μM), the “cytotoxicity grade (density of the monolayer)” value is recorded as “no cytotoxicity”. Further, the effect on monolayer entry in series [3] (177 μM, compared to cell control wells) was “moderate thinning and moderately less intense staining of the monolayer”.

As for “Ac-GDTVGLIDEQNEASKTNGLGAAEAF-NH2 [CLS2G]”, in the series on MDCK canine kidney cells (74.0 μM (second concentration)), the cytotoxicity result is “no cytotoxicity”. In the series on MDCK canine kidney cells (235 μM (highest concentration)), the effect on monolayer result was “moderate thinning and more intense staining of the monolayer”.
